# Measurements taken from the supplement of paper PMC10307832.
# Legend:
# Assay in all cases: relative viability (nuclei count vs DMSO), 5 days (fraction); higher = more cells survive
# [1] = compound: COc1cc2nccc(Oc3ccc(NC(=O)C4(C(=O)Nc5ccc(F)cc5)CC4)cc3)c2cc1OC [Cabozantinib] + Cc1nc(NC(=O)N2CCC[C@H]2C(N)=O)sc1-c1ccnc(C(C)(C)C(F)(F)F)c1 [Alpelisib] (partner 2 µM)
# Method in brief: (§1)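 Each reported value is a median over duplicate plates. It expresses relative viability: treated-well nuclei count divided by vehicle-well nuclei count. Lung cancer cell lines in 1536-well plates were dosed by pin tool a day after seeding, alone with one drug or with a fixed anchor-drug dose plus five library-drug doses (not always all listed) in √10 steps, and nuclei were counted after 5 days.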
# [2] = compound: C1=CC(=CC=C1NC(=S)NNC2=C(C=C(C=C2[N+](=O)[O-])C(F)(F)F)[N+](=O)[O-])F [Kobe2602] + CC(=O)c1c(C)c2cnc(Nc3ccc(N4CCNCC4)cn3)nc2n(C2CCCC2)c1=O [Palbociclib] (partner 0.5 µM)
# Method in brief: as §1
# [3] = compound: O[C@@H](COc1cccc2ncccc12)CN1CCN([C@@H]2c3ccccc3[C@@H]3[C@H](c4ccccc42)C3(F)F)CC1 [Zosuquidar] + C[C@@H](Oc1cc(-c2cnn(C3CCNCC3)c2)cnc1N)c1c(Cl)ccc(F)c1Cl [Crizotinib] (partner 1 µM)
# Method in brief: as §1
# [4] = compound: C1=CC(=CC=C1NC(=S)NNC2=C(C=C(C=C2[N+](=O)[O-])C(F)(F)F)[N+](=O)[O-])F [Kobe2602] + CCNC(=O)c1noc(-c2cc(C(C)C)c(O)cc2O)c1-c1ccc(CN2CCOCC2)cc1 [Luminespib] (partner 0.01 µM)
# Method in brief: as §1
cell line,measurement,setting,value
UMC-11,relative viability,[1]; first compound 0.02 µM,0.848
same,relative viability,[1]; first compound 0.06325 µM,1.1
same,relative viability,[1]; first compound 0.2 µM,1.01
same,relative viability,[1]; first compound 0.6325 µM,1.05
same,relative viability,[1]; first compound 2 µM,1.02
same,relative viability,[2]; first compound 0.2 µM,0.356
same,relative viability,[2]; first compound 0.6325 µM,0.331
same,relative viability,[2]; first compound 2 µM,0.347
same,relative viability,[2]; first compound 6.325 µM,0.343
same,relative viability,[2]; first compound 20 µM,0.345
same,relative viability,[3]; first compound 0.01 µM,0.494
same,relative viability,[3]; first compound 0.03162 µM,0.619
same,relative viability,[3]; first compound 0.1 µM,0.578
same,relative viability,[3]; first compound 0.3162 µM,0.622
same,relative viability,[3]; first compound 1 µM,0.564
same,relative viability,[4]; first compound 0.2 µM,1.04
same,relative viability,[4]; first compound 0.6325 µM,1.12
same,relative viability,[4]; first compound 2 µM,0.959
same,relative viability,[4]; first compound 6.325 µM,1.04
same,relative viability,[4]; first compound 20 µM,1.05
